Results reported in patent US20140155384A1, “COMPOUNDS AND METHODS OF TREATING DIABETES” (Medivation Technologies, Inc., priority 2011, published 2014).

Key:
[1] = biological target: T1, human recombinant adrenergic α2B receptor (Homo sapiens, UniProt P18089); assay: Radioligand binding, adrenergic α2B receptor ([3H]Rauwolscine); conditions: 0.1 μM compound, CHO-K1 cells, read-out: Percentage inhibition of ligand binding, Adrenergic α2B
T1 construct: expressed in transfected cells; host or cells: CHO-K1
T1 sequence (P18089 1-450): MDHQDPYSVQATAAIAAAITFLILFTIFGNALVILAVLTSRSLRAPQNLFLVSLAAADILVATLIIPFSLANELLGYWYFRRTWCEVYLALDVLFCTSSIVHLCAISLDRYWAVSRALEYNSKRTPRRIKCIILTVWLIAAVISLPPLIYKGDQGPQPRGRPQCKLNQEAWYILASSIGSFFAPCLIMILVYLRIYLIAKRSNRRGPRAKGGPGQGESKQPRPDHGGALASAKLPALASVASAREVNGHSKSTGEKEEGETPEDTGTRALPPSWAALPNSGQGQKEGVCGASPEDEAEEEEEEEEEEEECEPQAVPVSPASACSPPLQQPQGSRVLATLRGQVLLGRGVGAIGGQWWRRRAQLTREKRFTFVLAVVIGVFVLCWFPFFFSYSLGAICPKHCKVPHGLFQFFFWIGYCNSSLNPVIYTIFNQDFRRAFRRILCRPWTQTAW
How it was run: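 Percent inhibition of specific [3H]Rauwolscine (2.5 nM) binding, compounds at ≤1 μM, 1% DMSO vehicle, 10 μM prazosin defining nonspecific. Receptor: human α2B expressed in CHO-K1 cells, 60 min incubation at 25 °C in Tris-HCl pH 7.4 buffer (MgCl2, EDTA, BSA); filtered, washed, counted.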

[2] = biological target: T2, human recombinant adrenergic α2A receptor (Homo sapiens, UniProt P08913); assay: Radioligand binding, adrenergic α2A receptor ([3H]MK-912); conditions: 0.1 μM compound; Sf9 cells; 1 nM [3H]MK-912; read-out: Percentage inhibition of ligand binding, Adrenergic α2A
T2 construct: expressed in transfected cells; host or cells: insect Sf9 cells
T2 sequence (P08913 1-465): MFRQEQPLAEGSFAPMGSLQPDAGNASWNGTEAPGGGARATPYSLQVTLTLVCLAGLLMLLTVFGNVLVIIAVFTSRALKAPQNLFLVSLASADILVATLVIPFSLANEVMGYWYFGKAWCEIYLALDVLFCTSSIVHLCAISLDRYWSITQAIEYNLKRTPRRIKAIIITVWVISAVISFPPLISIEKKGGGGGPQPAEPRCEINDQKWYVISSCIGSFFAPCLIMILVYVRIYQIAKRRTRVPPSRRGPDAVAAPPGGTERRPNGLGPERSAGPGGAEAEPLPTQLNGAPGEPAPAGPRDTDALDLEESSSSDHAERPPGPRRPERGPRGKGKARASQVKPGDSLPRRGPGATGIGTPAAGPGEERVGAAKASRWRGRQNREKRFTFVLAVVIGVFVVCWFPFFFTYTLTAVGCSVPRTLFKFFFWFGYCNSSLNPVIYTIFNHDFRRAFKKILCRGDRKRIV
How it was run: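 Percent inhibition of specific [3H]MK-912 (1 nM) binding measured by filtration counting, compounds tested at ≤1 μM in 1% DMSO. Receptor: human α2A from Sf9 cells; incubation 60 min, 25 °C, pH 7.4; 10 μM WB-4101 defined nonspecific binding.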

[3] = biological target: T3, human recombinant adrenergic α1D receptor (Homo sapiens, UniProt P25100); assay: Radioligand binding, adrenergic α1D receptor ([3H]Prazosin); conditions: 0.1 μM compound; HEK-293 cells; 0.6 nM [3H]Prazosin; read-out: Percentage inhibition of ligand binding, Adrenergic α1D
T3 construct: expressed in transfected cells; host or cells: HEK-293
T3 sequence (P25100 1-572): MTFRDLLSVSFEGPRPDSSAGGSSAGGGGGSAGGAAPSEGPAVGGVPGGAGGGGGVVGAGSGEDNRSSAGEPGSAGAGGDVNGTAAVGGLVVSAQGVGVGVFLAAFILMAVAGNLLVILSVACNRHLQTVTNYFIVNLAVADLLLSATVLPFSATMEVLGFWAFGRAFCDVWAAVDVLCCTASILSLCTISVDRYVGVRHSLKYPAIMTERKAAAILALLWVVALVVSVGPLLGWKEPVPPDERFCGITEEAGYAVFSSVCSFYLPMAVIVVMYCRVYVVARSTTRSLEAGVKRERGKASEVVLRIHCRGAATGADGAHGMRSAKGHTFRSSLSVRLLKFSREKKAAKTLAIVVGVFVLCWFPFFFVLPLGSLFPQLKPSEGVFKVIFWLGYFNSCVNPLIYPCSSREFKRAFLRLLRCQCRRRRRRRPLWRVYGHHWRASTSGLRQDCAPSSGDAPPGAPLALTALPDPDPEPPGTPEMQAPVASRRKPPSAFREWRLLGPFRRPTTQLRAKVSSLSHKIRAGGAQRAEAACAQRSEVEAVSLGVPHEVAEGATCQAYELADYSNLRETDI
Description: Compounds were incubated with 0.6 nM [3H]Prazosin for 60 min at 25° C. Non-specific binding was estimated in the presence of 10 μM phentolamine. Receptor proteins were filtered and washed, the filters were then counted to determine [3H]Prazosin specifically bound. Compounds were screened at 1 μM or lower, using 1% DMSO as vehicle. Biochemical assay results are presented as the percent inhibition of specific binding in Table 2.

[4] = biological target: T4, rat adrenergic α1B receptor (Rattus norvegicus, UniProt P15823); assay: Radioligand binding, adrenergic α1B receptor ([3H]Prazosin); conditions: 0.1 μM compound, Wistar rat liver, read-out: Percentage inhibition of ligand binding, Adrenergic α1B
T4 construct: rat adrenergic α1B receptor obtained from Wistar Rat liver; from tissue; host or cells: Wistar rat liver
T4 sequence (P15823 1-515): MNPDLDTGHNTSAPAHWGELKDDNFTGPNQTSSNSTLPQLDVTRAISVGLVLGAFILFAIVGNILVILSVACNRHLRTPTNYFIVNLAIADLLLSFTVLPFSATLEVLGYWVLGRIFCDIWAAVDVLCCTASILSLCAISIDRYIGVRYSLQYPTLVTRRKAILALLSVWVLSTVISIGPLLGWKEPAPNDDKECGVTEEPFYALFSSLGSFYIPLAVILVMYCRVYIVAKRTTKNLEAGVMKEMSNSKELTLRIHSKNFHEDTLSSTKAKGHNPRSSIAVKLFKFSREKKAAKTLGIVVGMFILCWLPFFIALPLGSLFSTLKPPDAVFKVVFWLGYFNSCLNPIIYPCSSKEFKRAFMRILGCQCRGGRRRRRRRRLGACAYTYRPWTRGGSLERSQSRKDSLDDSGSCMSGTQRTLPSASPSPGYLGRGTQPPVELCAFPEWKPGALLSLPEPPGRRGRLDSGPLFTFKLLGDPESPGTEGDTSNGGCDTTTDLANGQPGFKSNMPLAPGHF
How it was run: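 Wistar rat liver α1B receptor preparation incubated with 0.25 nM [3H]prazosin and compound for 60 min at 25° C in 50 mM Tris-HCl pH 7.4, 0.5 mM EDTA; nonspecific binding defined with 10 μM phentolamine.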

With Cc1ccc2c(c1)c1c(n2-c2ccc3nc(C)ccc3c2)CCN(C)C1 [Compound No. 157, 2,8-dimethyl-5-(2-methyl-quinolin-6-yl)-2,3,4,5-tetrahydro-1H-pyrido[4,3-b]indole] the inhibition at 0.1 µM [1] was 60%, the inhibition at 0.1 µM [2] was 8% and the inhibition at 0.1 µM [3] was 13%. The inhibition at 0.1 µM [4] was 22%.
Compound Cc1ccc2c(c1)c1c(n2-c2cccc(-c3ccc(S(N)(=O)=O)cc3)c2)CCN(C)C1 [Compound No. 158, 3′-(2,8-dimethyl-3,4-dihydro-1H-pyrido[4,3-b]indol-5(2H)-yl)biphenyl-4-sulfonamide] has an inhibition at 0.1 µM [1] of 60%, an inhibition at 0.1 µM [2] of 73% and an inhibition at 0.1 µM [3] of 14%. For the same compound, the inhibition at 0.1 µM [4] was 7%.
